The target in test [1] is human SMG1 enzyme (Homo sapiens, UniProt Q96Q15). As to the kind of experiment: Measurement of SMG1 kinase activity (ADP-Glo Kinase Assay). In kind it is biochemical. The following applies: purified human SMG1 enzyme 5 nM, Upf1 peptide substrate, ATP 4 μM; qAC50 synonymous with IC50; read-out: Test Example 1 ADP-Glo IC50. The source says:
The SMG1 kinase inhibitory activity of a compound of the present invention or a pharmaceutically acceptable salt thereof can be measured, for example, by the method described below. Using purified human SMG1 protein and a substrate peptide as materials, the kinase activity can be measured by the ADP-Glo Kinase Assay; the SMG1 kinase inhibitory activity of a test substance can be evaluated by comparing the kinase activity in the presence and absence of the test substance.
The reaction was performed by the ADP-Glo Kinase Assay (Promega, catalog number V9102) using a 384-well plate under the conditions of an assay buffer (100 mM HEPES (pH 7.5), 50 mM NaCl, 10 mM MnCl2, 0.01% BSA, 0.1% Tween 20.5 mM TCEP). After incubating a test substance (DMSO solution; final DMSO concentration: 1%) and purified human SMG1 enzyme (Genes Dev. 2011 Jan. 15; 25(2): 153-164, produced by Daiichi Sankyo RD Novare Co., Ltd.; final concentration: 5 nM) at room temperature for 15 minutes, a substrate, Upf1 peptide (Biotin-(PEG8) QIDVALSQDSTYQG, produced by Eurofins genomics; final concentration: 8 μg/mL), and ATP (Promega: 4 μM) were added, and the mixture was reacted at room temperature for 60 minutes (see Non-Patent Literature R. Melero, et al., Structure Volume 22, Issue 8, 5 Aug. 2014, Pages 1105-1119 for the Upf1 peptide). ADP-Glo Reagent was added, and the mixture was reacted at room temperature for 40 minutes. Kinase Detection Reagent was added, and the mixture was reacted for another 30 minutes. The luminescence intensity was measured using EnVision (PerkinElmer).
The activity value (%) of the test substance-added well was calculated from the following formula, where the average luminescence intensity of the DMSO-added well was 0% and the average luminescence intensity of the SMG1 enzyme-free well was −100%.
The qAC50 (compound concentration showing 50% inhibition, synonymous with IC50) of the test substance was calculated using the activity value (%) at each concentration by Smart fit of Screener (Genedata). Smart fit is a general 4-parameter logistic regression model.
(ADP-Glo first removes unused ATP, then detects ADP through luciferase.)

Test [2] concerns Snhg1 transcript (NMD target gene) in EMT6 murine breast cancer cell line. Kind of test: Measurement of NMD inhibitory activity in cells (increase in Snhg1 transcript, real-time PCR). Set-up: species or system mouse. The note with it: Mus musculus, 6 hours treatment, concentration giving 1/2 of maximum Snhg1 fold change of positive control, read-out: Test Example 2 Cell-based Snhg1 EC50. The procedure:
The NMD inhibitory activity of a compound of the present invention or a pharmaceutically acceptable salt thereof in cells can be measured, for example, by the method described below. EMT6 murine breast cancer cell line is treated with a test substance in vitro for 6 hours, and the increase in the transcript of Snhg1, a known NMD target gene, is quantified as an indicator of NMD inhibition. Quantification is performed by real-time PCR.
NMD inhibitory activity was measured by treating EMT6 murine breast cancer cell line (ATCC) with a test substance and quantifying the increase in the transcript of Snhg1, an NMD target gene (see F. Usui, et al., Scientific Reports volume 9, Article number: 1279 (2019) for the NMD target gene). That is, EMT6 cells were suspended in Waymouth's medium (Gibco, 15% FBS) and seeded in a 96-well plate at 2×10^4 cells/well. The cells were cultured for 1 day. The next day, serially diluted test substance (DMSO solution, final DMSO concentration: 2%) was added. After culturing for 6 hours, the supernatant was removed, and RNA was extracted using the RNeasy 96 kit (QIAGEN, 74182). After synthesizing cDNA using the High Capacity cDNA Reverse Transcription kit (Applied Biosystems, 4368813), the cDNA was mixed with PrimeTime Gene Expression Master Mix (Integrated DNA Technologies) and various probes, and gene expression was quantified using QuantStudio 6 Flex (Thermo Fisher Scientific Inc.). For the probe for the Snhg1 gene, which is an NMD target, Mm.PT.58.44039547 (FAM)(Integrated DNA Technologies) was used, and for the probe for the Tbp gene, which is an endogenous control, Mm00446973_m1 Tbp (VIC-PL) (Applied Biosystems) was used. The relative quantification of Snhg1 transcripts was calculated by the ΔΔCT method, using Thp as an endogenous control and setting the expression level of Snhg1 in untreated wells to 1.
A known NMD inhibitory compound (pyrimidine derivative Example 11i, Bioorg Med Chem Lett. 2012, 22(21), 6636-41) was used as a positive control drug for NMD inhibition. The NMD inhibitory activity of the test substance-added well was calculated as follows: the maximum fold change in Sngh1 expression in the positive control drug-added well relative to that in the untreated well was defined as the maximum NMD inhibitory activity, and the EC50 (compound concentration showing 50%/activity) of the test substance showing a ½-fold change was calculated by the GROWTH function of Microsoft Excel.
Background: Quantitative PCR measures a nucleic acid by following its amplification.

Structures are written as SMILES.

human SMG1 enzyme, sequence (Q96Q15 whole entry): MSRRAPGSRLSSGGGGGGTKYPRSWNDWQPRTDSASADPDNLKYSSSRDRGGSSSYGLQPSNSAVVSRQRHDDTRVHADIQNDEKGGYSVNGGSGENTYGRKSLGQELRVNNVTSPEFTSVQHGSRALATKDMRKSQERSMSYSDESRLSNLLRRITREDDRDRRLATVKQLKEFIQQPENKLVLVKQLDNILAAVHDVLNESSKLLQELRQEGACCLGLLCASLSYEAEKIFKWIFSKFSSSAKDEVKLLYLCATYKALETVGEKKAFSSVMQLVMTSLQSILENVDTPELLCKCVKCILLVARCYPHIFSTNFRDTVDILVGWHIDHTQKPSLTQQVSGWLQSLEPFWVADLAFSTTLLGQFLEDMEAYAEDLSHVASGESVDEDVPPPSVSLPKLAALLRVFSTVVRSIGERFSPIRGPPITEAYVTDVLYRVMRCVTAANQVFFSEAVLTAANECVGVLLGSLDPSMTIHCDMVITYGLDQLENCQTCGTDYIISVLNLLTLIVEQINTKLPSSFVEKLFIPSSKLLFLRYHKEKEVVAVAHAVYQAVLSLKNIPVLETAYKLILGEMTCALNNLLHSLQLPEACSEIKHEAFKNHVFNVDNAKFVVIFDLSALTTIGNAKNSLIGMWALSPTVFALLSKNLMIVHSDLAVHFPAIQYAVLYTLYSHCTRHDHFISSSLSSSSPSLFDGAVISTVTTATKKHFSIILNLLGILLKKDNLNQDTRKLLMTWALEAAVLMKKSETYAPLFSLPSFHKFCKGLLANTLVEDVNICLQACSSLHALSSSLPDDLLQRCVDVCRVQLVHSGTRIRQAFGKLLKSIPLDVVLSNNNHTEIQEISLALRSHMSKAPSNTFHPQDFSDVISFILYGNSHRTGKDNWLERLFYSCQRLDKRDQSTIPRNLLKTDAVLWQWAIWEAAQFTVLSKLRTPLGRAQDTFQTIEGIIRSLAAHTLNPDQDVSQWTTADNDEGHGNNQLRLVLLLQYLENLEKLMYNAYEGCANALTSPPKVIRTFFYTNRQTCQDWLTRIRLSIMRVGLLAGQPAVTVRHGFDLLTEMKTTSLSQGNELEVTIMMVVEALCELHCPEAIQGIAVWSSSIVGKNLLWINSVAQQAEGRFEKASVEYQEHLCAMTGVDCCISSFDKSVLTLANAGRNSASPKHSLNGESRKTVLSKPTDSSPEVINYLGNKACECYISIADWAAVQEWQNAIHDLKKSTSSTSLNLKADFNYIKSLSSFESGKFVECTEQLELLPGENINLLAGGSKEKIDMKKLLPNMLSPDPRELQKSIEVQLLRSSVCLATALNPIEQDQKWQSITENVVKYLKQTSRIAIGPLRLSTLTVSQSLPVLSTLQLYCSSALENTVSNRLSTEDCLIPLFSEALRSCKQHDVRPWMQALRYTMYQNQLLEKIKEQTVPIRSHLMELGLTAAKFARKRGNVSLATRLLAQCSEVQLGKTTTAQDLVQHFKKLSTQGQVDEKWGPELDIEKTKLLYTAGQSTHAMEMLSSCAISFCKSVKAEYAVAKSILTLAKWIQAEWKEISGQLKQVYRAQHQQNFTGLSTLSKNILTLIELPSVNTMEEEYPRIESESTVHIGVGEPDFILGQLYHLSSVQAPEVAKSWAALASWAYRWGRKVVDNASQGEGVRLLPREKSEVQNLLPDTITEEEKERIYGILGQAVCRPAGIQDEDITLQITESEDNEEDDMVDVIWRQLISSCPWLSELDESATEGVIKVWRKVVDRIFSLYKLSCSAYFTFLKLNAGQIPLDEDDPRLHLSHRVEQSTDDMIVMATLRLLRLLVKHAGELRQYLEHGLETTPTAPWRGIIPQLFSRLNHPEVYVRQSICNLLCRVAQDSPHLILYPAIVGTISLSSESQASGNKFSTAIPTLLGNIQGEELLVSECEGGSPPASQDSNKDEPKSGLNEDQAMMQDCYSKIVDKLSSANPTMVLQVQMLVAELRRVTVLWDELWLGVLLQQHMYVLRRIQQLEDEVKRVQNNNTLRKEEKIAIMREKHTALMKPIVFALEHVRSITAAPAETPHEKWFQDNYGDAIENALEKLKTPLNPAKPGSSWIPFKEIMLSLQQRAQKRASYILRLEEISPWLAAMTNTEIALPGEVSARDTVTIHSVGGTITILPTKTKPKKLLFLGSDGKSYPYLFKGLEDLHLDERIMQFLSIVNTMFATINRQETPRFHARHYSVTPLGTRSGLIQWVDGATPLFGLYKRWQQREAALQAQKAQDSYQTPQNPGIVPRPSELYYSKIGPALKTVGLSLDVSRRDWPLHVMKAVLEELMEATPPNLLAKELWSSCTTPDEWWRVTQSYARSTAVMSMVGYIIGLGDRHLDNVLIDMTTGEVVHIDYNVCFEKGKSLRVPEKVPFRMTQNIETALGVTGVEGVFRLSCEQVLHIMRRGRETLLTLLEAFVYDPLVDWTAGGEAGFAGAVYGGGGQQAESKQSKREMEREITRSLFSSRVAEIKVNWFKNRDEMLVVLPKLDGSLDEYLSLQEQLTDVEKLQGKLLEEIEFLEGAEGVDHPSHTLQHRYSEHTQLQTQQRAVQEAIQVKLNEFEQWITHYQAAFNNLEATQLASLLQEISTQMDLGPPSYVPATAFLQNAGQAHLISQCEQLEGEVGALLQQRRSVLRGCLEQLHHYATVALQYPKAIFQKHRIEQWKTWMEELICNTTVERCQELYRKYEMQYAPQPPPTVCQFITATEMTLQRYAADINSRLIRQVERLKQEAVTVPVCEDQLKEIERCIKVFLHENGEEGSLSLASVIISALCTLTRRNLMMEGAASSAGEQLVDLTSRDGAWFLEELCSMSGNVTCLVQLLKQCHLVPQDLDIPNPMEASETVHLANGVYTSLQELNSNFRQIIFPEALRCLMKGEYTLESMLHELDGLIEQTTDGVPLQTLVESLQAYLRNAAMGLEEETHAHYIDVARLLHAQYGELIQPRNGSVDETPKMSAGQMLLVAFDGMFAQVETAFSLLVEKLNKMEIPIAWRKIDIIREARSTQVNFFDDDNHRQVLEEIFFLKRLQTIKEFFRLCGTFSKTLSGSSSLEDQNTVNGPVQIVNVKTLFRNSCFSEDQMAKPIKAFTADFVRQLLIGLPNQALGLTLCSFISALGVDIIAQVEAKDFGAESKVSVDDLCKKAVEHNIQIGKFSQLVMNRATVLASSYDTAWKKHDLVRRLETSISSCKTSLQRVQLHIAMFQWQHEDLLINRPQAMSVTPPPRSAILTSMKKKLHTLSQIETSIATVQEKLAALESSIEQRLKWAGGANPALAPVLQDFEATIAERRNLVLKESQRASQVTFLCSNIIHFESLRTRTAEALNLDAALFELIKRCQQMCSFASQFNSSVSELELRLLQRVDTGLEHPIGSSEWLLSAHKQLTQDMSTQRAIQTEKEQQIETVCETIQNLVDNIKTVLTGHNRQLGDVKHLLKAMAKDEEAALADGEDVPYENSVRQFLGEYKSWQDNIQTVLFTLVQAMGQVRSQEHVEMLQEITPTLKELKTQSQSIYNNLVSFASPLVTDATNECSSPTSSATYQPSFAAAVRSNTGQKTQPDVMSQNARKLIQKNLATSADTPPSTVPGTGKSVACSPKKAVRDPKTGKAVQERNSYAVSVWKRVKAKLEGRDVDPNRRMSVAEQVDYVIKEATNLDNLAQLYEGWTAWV

One may read the IC50 as the concentration needed to halve the response being measured. The term EC50 denotes the concentration needed to bring the measured effect to its halfway point. On to `CCc1nc(Cl)cc2[nH]c(-c3cc4c(-c5c(C)cnn5C)nccc4[nH]c3=O)nc12` [Example 87, 3-(6-chloro-4-ethyl-1H-imidazo[4,5-c]pyridin-2-yl)-5-(1,4-dimethyl-1H-pyrazol-5-yl)-1,6-naphthyridin-2(1H)-one], for which the IC50 in test [1] worked out at 1.3 nM. For the same compound, the EC50 in test [2] stood at 59 nM.
For `Cc1nn(C)c(C)c1-c1nccc2[nH]c(=O)c(-c3nc4cnc(Cl)cc4[nH]3)cc12` [Example 88, 3-(6-chloro-1H-imidazo[4,5-c]pyridin-2-yl)-5-(1,3,5-trimethyl-1H-pyrazol-4-yl)-1,6-naphthyridin-2(1H)-one] the same measures were 1.1 nM and 46 nM.
For `CCc1nc(Cl)cc2[nH]c(-c3cc4c(-c5c(C)nn(C)c5C)nccc4[nH]c3=O)nc12` [Example 89, 3-(6-chloro-4-ethyl-1H-imidazo[4,5-c]pyridin-2-yl)-5-(1,3,5-trimethyl-1H-pyrazol-4-yl)-1,6-naphthyridin-2(1H)-one] the same measures were 0.59 nM and 14 nM.
For `Cc1nn(CC2CC2)c(C)c1-c1nccc2[nH]c(=O)c(-c3nc4cnc(Cl)cc4[nH]3)cc12` [Example 90, 3-(6-chloro-1H-imidazo[4,5-c]pyridin-2-yl)-5-[1-(cyclopropylmethyl)-3,5-dimethyl-1H-pyrazol-4-yl]-1,6-naphthyridin-2(1H)-one] the same measures were 1.5 nM and 74 nM.
On to `Cc1c(-c2nccc3[nH]c(=O)c(-c4nc5cnc(Cl)cc5[nH]4)cc23)c(C2CC2)nn1CC(F)F` [Example 93, 3-(6-chloro-1H-imidazo[4,5-c]pyridin-2-yl)-5-[3-cyclopropyl-1-(2,2-difluoroethyl)-5-methyl-1H-pyrazol-4-yl]-1,6-naphthyridin-2(1H)-one], for which the IC50 in test [1] stood at 1.2 nM. The concentration for a half-maximal effect (EC50) in test [2] was found to be 81 nM.
Regarding `Cc1c(-c2nccc3[nH]c(=O)c(-c4nc5cnc(Cl)cc5[nH]4)cc23)c(C(F)F)nn1C(C)C` [Example 94, 3-(6-chloro-1H-imidazo[4,5-c]pyridin-2-yl)-5-[3-(difluoromethyl)-5-methyl-1-(propan-2-yl)-1H-pyrazol-4-yl]-1,6-naphthyridin-2(1H)-one], the IC50 in test [1] stood at 1.5 nM. Besides, in test [2], the EC50 was determined as 60 nM.
In the same order, the values of `O=c1[nH]c2ccnc(-c3cnn4c3OCCC4)c2cc1-c1nc2cnc(Cl)cc2[nH]1` [Example 95, 3-(6-chloro-1H-imidazo[4,5-c]pyridin-2-yl)-5-(6,7-dihydro-5H-pyrazolo[5,1-b][1,3]oxazin-3-yl)-1,6-naphthyridin-2(1H)-one] are 1 nM and 82 nM.
`O=C1Nc2ccnc(-c3ccccc3Cl)c2CN1c1nc2cnc(Cl)cc2[nH]1` [Example 102, 3-(6-chloro-1H-imidazo[4,5-c]pyridin-2-yl)-5-(2-chlorophenyl)-3,4-dihydropyrido[4,3-d]pyrimidin-2(1H)-one]: the IC50 in test [1] was 2.8 nM. Moreover, the EC50 in test [2] is 76 nM.
As for `COc1ccccc1-c1nccc2c1CN(c1nc3cnc(Cl)cc3[nH]1)C(=O)N2` [Example 103, 3-(6-chloro-1H-imidazo[4,5-c]pyridin-2-yl)-5-(2-methoxyphenyl)-3,4-dihydropyrido[4,3-d]pyrimidin-2(1H)-one], in test [1], the IC50 is 3.3 nM. The concentration for a half-maximal effect (EC50) in test [2] came to 71 nM.
For `O=c1[nH]c2ccnc(C3=CCCN(S(=O)(=O)C4CC4)C3)c2cc1-c1nc2cnc(Cl)cc2[nH]1` [Example 104, 3-(6-chloro-1H-imidazo[4,5-c]pyridin-2-yl)-5-[1-(cyclopropylsulfonyl)-1,2,5,6-tetrahydropyridin-3-yl]-1,6-naphthyridin-2(1H)-one] the same measures were 0.79 nM and 75 nM.
For `O=C(C1CC1)N1CCC=C(c2nccc3[nH]c(=O)c(-c4nc5cnc(Cl)cc5[nH]4)cc23)C1` [Example 105, 3-(6-chloro-1H-imidazo[4,5-c]pyridin-2-yl)-5-[1-(cyclopropylcarbonyl)-1,2,5,6-tetrahydropyridin-3-yl]-1,6-naphthyridin-2(1H)-one] the same measures were 1.5 nM and 59 nM.
For `O=c1[nH]c2ccnc(C3CCCCN(S(=O)(=O)c4ccccc4)C3)c2cc1-c1nc2cnc(Cl)cc2[nH]1` (stereo not shown) [Example 106, 3-(6-chloro-1H-imidazo[4,5-c]pyridin-2-yl)-5-[1-(phenylsulfonyl)azepan-3-yl]-1,6-naphthyridin-2(1H)-one], in test [1], the IC50 is 2.5 nM. Besides, in test [2], the EC50 came out at 87 nM.
Regarding `CN1CCCN(C)c2nc(Cl)cc3[nH]c(nc23)-c2cc3c(nccc3[nH]c2=O)-c2ccc(cc2F)C1=O` [Example 107, 7-Chloro-18-fluoro-10,14-dimethyl-3,8,10,14,21,25,31-heptaazahexacyclo[18.6.2.2^16,19.1^2,5.0^4,9.0^24,28]hentriacont-1(27),2,4,6,8,16,18,20(28),21,23,29-undecaen-15,26-dione], the IC50 in test [1] was 0.64 nM. Besides, the concentration giving a half-maximal response (EC50) in test [2] was 30 nM.
In the same order, the values of `Cc1c2cccc1-c1nccc3[nH]c(=O)c(cc13)-c1nc3c(nc(Cl)cc3[nH]1)N(C)CCCN(C)C2=O` [Example 108, 7-chloro-10,14,30-trimethyl-3,8,10,14,22,26,31-heptaazahexacyclo[19.6.2.1^2,5.1^16,20.0^4,9.0^25,29]hentriacont-1(28),2,4,6,8,16(30),17,19,21(29),22,24-undecaen-15,27-dione] are 1 nM and 2 nM.
For `Cc1cc2ccc1-c1nccc3[nH]c(=O)c(cc13)-c1nc3c(nc(Cl)cc3[nH]1)N(C)CCC(=O)N(C)C2` [Example 109, 7-chloro-10,14,18-trimethyl-3,8,10,14,21,25,31-heptaazahexacyclo[18.6.2.2^16,19.1^2,5.0^4,9.0^24,28]hentriacont-1(27),2,4,6,8,16,18,20(28),21,23,29-undecaen-13,26-dione] the same measures were 2.3 nM and 165 nM.
In the same order, the values of `Cc1c2cccc1-c1nccc3[nH]c(=O)c(cc13)-c1nc3c(nc(Cl)cc3[nH]1)N1CCCN(CC1)C(=O)CO2` [Example 110, 7-chloro-32-methyl-17-oxa-3,8,10,14,24,28,35-heptaazaheptacyclo[21.6.2.2^10,14.1^2,5.1^18,22.0^4,9.0^27,31]pentatriacont-1(30),2,4,6,8,18(32),19,21,23(31),24,26-undecaen-15,29-dione] are 1.3 nM and 1.1 nM.
As for `Cc1c2cccc1-c1nccc3[nH]c(=O)c(cc13)-c1nc3c(nc(Cl)cc3[nH]1)NCC(C)(C)NC(=O)CO2` [Example 111, 7-chloro-12,12,31-trimethyl-16-oxa-3,8,10,13,23,27,32-heptaazahexacyclo[20.6.2.1^2,5.1^17,21.0^4,9.0^26,30]dotriacont-1(29),2,4,6,8,17(31),18,20,22(30),23,25-undecaen-14,28-dione], the IC50 in test [1] came to 1.6 nM. For the same compound, the EC50 in test [2] stood at 8.4 nM.

(Values after patent publication US20260109715A1, “IMIDAZOPYRIDINE DERIVATIVES WITH BICYCLIC STRUCTURE” (PUBLIC UNIVERSITY CORPORATION YOKOHAMA CITY UNIVERSITY, priority 2022, published 2026).)
